This is an account of results in patent US20240262814A1, “MODULATORS OF TREX1” (Constellation Pharmaceuticals, Inc., priority 2021, published 2024).

One test addresses T1, human TREX1 (Homo sapiens, UniProt Q9NSU2).
T1 construct: N-terminally His-Tev tagged full length human TREX1; made in house; host or cells: E. coli
T1 sequence (Q9NSU2 1-314): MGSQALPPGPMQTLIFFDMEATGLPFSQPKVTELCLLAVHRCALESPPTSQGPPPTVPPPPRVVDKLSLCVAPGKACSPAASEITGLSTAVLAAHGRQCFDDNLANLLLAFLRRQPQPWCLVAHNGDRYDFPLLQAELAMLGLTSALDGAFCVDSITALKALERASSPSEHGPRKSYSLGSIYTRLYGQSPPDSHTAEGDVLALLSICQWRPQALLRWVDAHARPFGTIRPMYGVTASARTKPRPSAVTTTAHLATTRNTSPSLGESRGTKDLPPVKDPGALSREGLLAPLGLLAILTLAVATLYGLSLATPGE
The test is described as follows: hTREX1 Biochemical Assay (fluorescence, dsDNA substrate degradation). To be noted: full length human TREX1, 4 h pre-incubation, 18 h reaction at 25° C. An outline of the steps:
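His-Tev-tagged full-length E. coli-expressed enzyme (4 pM final) preincubated with compound 4 h at 25° C., then 60 nM quenched-fluorophore dsDNA added in Tris pH 7.4, 5 mM MgCl2, 1% DMSO. After 18 h at 25° C., EDTA-quenched; fluorescence 615 nm (ex 570 nm); IC50 from four-parameter fit versus EDTA and no-inhibitor controls.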

The target of the next test is T2, human TREX2 (Homo sapiens, UniProt Q9BQ50).
T2 construct: human TREX2 (residues M44-A279, expressed in E. coli); made in house; host or cells: E. coli
T2 sequence (Q9BQ50 44-279 isoform Q9BQ50-1): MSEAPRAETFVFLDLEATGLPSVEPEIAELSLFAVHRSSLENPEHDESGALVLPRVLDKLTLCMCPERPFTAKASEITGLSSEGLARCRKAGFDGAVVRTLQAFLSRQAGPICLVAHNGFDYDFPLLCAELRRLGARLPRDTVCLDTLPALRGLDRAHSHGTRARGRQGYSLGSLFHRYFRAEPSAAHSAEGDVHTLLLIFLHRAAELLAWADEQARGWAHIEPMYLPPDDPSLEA
In words: hTREX2 Biochemical Assay (selectivity hTREX1 vs hTREX2). The conditions noted are these: biochemical selectivity for hTREX1 vs hTREX2. An outline of the steps:
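His-Tev-tagged human TREX2 (M44-A279, E. coli-expressed) preincubated with compound (10-point dose-response) for 4 h at 25 °C in Tris pH 7.4 buffer with 5 mM MgCl2. Reaction then run with 60 nM TEX615/quencher dsDNA and 50 pM enzyme (1% DMSO) for 18 h at 25 °C and EDTA-quenched. Fluorescence read at 615 nm (ex 570 nm); IC50 by four-parameter fit against pre-quenched and no-inhibitor controls.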

Usually IC50 stands for the concentration that inhibits the measured activity by half. A low value points to inhibition by little substance.

Molecules are shown by their SMILES. Bounds are passed on as bounds.

At human TREX1, `Cn1c([C@H](C(c2ccccc2)c2ccccc2)C(F)(F)F)nc(C(=O)Nc2cnoc2)c(O)c1=O` (single isomer, unassigned) [Example 20 Isomer 1, 5-Hydroxy-N-(isoxazol-4-yl)-1-methyl-6-oxo-2-(1,1,1-trifluoro-3,3-diphenylpropan-2-yl)-1,6-dihydropyrimidine-4-carboxamide] came in with a 50% inhibitory concentration (IC50) of 10 to 100 nM. Also, at human TREX2, the “hTREX1 vs hTREX2 selectivity” value is given as “A (A = <25 fold selective for hTREX1)”.
The corresponding values for `CC(c1nc(C(=O)Nc2cnoc2)c(O)c(=O)n1C)C(c1ccccc1Cl)c1ccccc1C#N` (single isomer, unassigned) [Example 10 Isomer 1] are below 1 nM and “C (C = >50 fold selective for hTREX1)”.
On to `CC(c1nc(C(=O)Nc2cnoc2)c(O)c(=O)n1C)C(c1ccccc1)c1ccccc1` (single isomer, unassigned) [Example 1 Isomer 1, 2-(1,1-diphenylpropan-2-yl)-5-hydroxy-N-(isoxazol-4-yl)-1-methyl-6-oxo-1,6-dihydro pyrimidine-4-carboxamide], for which the IC50 against human TREX1 is above 100 nM. Besides, on human TREX2, the “hTREX1 vs hTREX2 selectivity” value is “A (A = <25 fold selective for hTREX1)”.
The corresponding values for `C[C@H](c1nc(C(=O)Nc2cnoc2)c(O)c(=O)n1C)[C@H](c1ccccc1)c1ccccc1Cl` (single isomer, unassigned) [Example 2 Isomer 3, 2-(1-(2-chlorophenyl)-1-phenylpropan-2-yl)-5-hydroxy-N-(isoxazol-4-yl)-1-methyl-6-oxo-1,6-dihydropyrimidine-4-carboxamide] are below 1 nM and “B (B = 25 to 50 fold selective for hTREX1)”.
For `Cn1c([C@@H](C(c2ccccc2C#N)c2ccccc2C#N)C(F)(F)F)nc(C(=O)Nc2cnoc2)c(O)c1=O` (single isomer, unassigned) [Example 21 Isomer 1, 2-(3,3-bis(2-cyanophenyl)-1,1,1-trifluoropropan-2-yl)-5-hydroxy-N-(isoxazol-4-yl)-1-methyl-6-oxo-1,6-dihydropyrimidine-4-carboxamide], at human TREX1, the IC50 was below 1 nM. In addition, the “hTREX1 vs hTREX2 selectivity” value on human TREX2 is “C (C = >50 fold selective for hTREX1)”.
`CC(c1nc(C(=O)Nc2cnoc2)c(O)c(=O)n1C)C(c1ccccc1)c1cc(C(=O)N(C)C)ccc1C#N` (single isomer, unassigned) [Example 17 Isomer 3] gave an IC50 against human TREX1 below 1 nM. In addition, the “hTREX1 vs hTREX2 selectivity” value on human TREX2 was “B (B = 25 to 50 fold selective for hTREX1)”.
On human TREX1, `CC(c1nc(C(=O)Nc2cnoc2)c(O)c(=O)n1C)C(c1ccccc1C#N)c1ccccc1C#N` (single isomer, unassigned) [Example 4 Isomer 2] had an IC50 below 1 nM. For the same compound, on human TREX2, the “hTREX1 vs hTREX2 selectivity” value is “C (C = >50 fold selective for hTREX1)”.
Regarding `CC(c1nc(C(=O)Nc2cnoc2)c(O)c(=O)n1C)C(c1ccccc1)c1ccc(Cl)cc1C#N` (single isomer, unassigned) [Example 9 Isomer 4], the 50% inhibitory concentration (IC50) against human TREX1 is below 1 nM. On human TREX2, the “hTREX1 vs hTREX2 selectivity” value is on record as “B (B = 25 to 50 fold selective for hTREX1)”.
For `C[C@H](c1nc(C(=O)Nc2cnoc2)c(O)c(=O)n1C)[C@H](c1ccccc1)c1ccccc1C(F)(F)F` (single isomer, unassigned) [Example 14 Isomer 2, 5-Hydroxy-N-(isoxazol-4-yl)-1-methyl-6-oxo-2-(1-phenyl-1-(2-(trifluoromethyl)phenyl)propan-2-yl)-1,6-dihydropyrimidine-4-carboxamide], in that order: 1 to 10 nM and “C (C = >50 fold selective for hTREX1)”.
In turn, `CC(c1nc(C(=O)Nc2cnoc2)c(O)c(=O)n1C)C(c1cc(F)cc(F)c1)c1ccccc1C#N` (single isomer, unassigned) [Example 11 Isomer 3] registered an IC50 at human TREX1 below 1 nM. For the same compound, the “hTREX1 vs hTREX2 selectivity” value at human TREX2 is “B (B = 25 to 50 fold selective for hTREX1)”.
The corresponding values for `CC(c1nc(C(=O)Nc2cnoc2)c(O)c(=O)n1C)C(c1ccccc1)c1ccccc1` (single isomer, unassigned) [Example 1 Isomer 2, 2-(1,1-diphenylpropan-2-yl)-5-hydroxy-N-(isoxazol-4-yl)-1-methyl-6-oxo-1,6-dihydro pyrimidine-4-carboxamide] are 1 to 10 nM and “A (A = <25 fold selective for hTREX1)”.
The corresponding values for `CC(c1nc(C(=O)Nc2cnoc2)c(O)c(=O)n1C)C(c1ccccc1)c1ccccc1C#N` (single isomer, unassigned) [Example 3 Isomer 4] are below 1 nM and “B (B = 25 to 50 fold selective for hTREX1)”.
In turn, `CC(c1nc(C(=O)Nc2cnoc2)c(O)c(=O)n1C)C(c1ccccc1)c1cc(F)ccc1C#N` (single isomer, unassigned) [Example 6 Isomer 4] gave an IC50 on human TREX1 below 1 nM. Also, the “hTREX1 vs hTREX2 selectivity” value at human TREX2 is given as “B (B = 25 to 50 fold selective for hTREX1)”.
With `C[C@H](c1nc(C(=O)Nc2cnoc2)c(O)c(=O)n1C)C(c1ccccc1Cl)c1ccccc1Cl` (single isomer, unassigned) [Example 15 Isomer 1, 2-(1,1-bis(2-chlorophenyl)propan-2-yl)-5-hydroxy-N-(isooxazol-4-yl)-1-methyl-6-oxo-1,6-dihydropyrimidine-4-carboxamide], the IC50 at human TREX1 is below 1 nM. The “hTREX1 vs hTREX2 selectivity” value at human TREX2 is “C (C = >50 fold selective for hTREX1)”.
Compound `CC(c1nc(C(=O)Nc2cnoc2)c(O)c(=O)n1C)C(c1ccccc1)c1cc(Cl)ccc1C#N` (single isomer, unassigned) [Example 8 Isomer 2] registered an IC50 at human TREX1 below 1 nM. The “hTREX1 vs hTREX2 selectivity” value on human TREX2 is “C (C = >50 fold selective for hTREX1)”.
